From article PMC11641208, “Advanced PROTAC and Quantitative Proteomics Strategy Reveals Bax Inhibitor-1 as a Critical Target of Icaritin in Burkitt Lymphoma” (International Journal of Molecular Sciences, 2024)

Target: T1, Bax inhibitor-1 (BI-1) (Homo sapiens, UniProt P55061)
T1 construct: gene TMBIM6
Assay: SPR (Biacore T200, BI-1 immobilised on CM5 chip, kinetic […] fit)
Assay type: binding

T1 sequence (P55061 whole entry): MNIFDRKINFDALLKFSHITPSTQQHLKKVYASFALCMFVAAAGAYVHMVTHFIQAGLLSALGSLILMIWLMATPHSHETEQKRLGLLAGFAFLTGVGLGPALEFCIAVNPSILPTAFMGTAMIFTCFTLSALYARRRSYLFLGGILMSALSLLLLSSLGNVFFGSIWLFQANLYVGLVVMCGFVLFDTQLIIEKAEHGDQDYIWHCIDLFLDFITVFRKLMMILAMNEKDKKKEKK

SMILES: C#CCOc1cc(O)c2c(=O)c(OCCOCCOCCOCC(=O)NCCCCCC(=O)Nc3cccc4c3CN(C3CCC(=O)NC3=O)C4=O)c(-c3ccc(OC)cc3)oc2c1CC=C(C)C (stereo not shown) [compound 10, LJ-41]
- Kd: 79.7 µM
